The target of the first test is T1, DDR1 (Homo sapiens (Human), UniProt Q08345). The test can be described thus: Measurement of DDR1 enzyme inhibitory activity (phosphorylation of biotinylated peptide, time-resolved fluorescence). Type of test: biochemical. The following applies: human DDR1 enzyme, biotinylated peptide phosphorylation; read-out: DDR1 enzyme inhibition assay IC50. In outline:
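Baculovirus-expressed human DDR1 phosphorylated a biotinylated peptide, and inhibition of that phosphorylation was measured. Phosphopeptide was detected by time-resolved fluorescence using europium cryptate–labelled anti-phosphotyrosine antibody with streptavidin-XL665.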
T1 sequence (Q08345 19-913): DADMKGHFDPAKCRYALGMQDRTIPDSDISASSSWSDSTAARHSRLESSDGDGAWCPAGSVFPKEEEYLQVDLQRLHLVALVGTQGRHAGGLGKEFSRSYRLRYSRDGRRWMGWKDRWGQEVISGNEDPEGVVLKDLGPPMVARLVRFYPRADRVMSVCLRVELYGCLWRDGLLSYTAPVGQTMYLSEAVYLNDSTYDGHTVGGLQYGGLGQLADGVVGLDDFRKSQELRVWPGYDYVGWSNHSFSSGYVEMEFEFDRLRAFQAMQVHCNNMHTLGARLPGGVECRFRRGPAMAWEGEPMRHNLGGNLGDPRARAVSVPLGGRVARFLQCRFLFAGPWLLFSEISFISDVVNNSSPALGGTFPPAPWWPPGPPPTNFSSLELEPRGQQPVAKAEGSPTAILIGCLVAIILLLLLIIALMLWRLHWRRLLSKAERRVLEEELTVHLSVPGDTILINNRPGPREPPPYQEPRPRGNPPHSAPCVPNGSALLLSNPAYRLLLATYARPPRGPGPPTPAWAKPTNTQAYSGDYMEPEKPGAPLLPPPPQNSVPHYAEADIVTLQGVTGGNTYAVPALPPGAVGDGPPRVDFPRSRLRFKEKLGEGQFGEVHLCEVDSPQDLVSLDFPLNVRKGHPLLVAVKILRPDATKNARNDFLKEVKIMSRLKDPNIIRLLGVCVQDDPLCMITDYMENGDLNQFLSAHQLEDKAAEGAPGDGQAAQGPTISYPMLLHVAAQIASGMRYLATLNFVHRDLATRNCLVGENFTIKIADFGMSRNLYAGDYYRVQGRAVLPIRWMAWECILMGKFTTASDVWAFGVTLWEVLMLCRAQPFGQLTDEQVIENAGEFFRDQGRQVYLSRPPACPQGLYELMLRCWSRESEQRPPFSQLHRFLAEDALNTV
On to `CCSc1ccc(Cl)cc1Cn1cnc2ccc(C(F)(F)F)cc2c1=O` [Compound E-15, 3-[(5-Chloro-2-ethylsulfanylphenyl)methyl]-6-(trifluoromethyl)quinazolin-4-one], for which the IC50 was 450 nM.

`CCS(=O)(=O)c1ccc(Cl)cc1Cn1cnc2c(Br)c(C)c(Br)cc2c1=O` [Compound E-17, 6,8-Dibromo-3-[(5-chloro-2-ethylsulfonylphenyl)methyl]-7-methylquinazolin-4-one]: the IC50 came to 150 nM.

Take `CCS(=O)(=O)c1ccc(C#N)cc1Cn1cnc2ccc(C(F)(F)F)cc2c1=O` [Compound E-28, 4-Ethylsulfonyl-3-[[4-oxo-6-(trifluoromethyl)quinazolin-3-yl]methyl]benzonitrile]: the IC50 was 630 nM.

On to `CCS(=O)(=O)c1ccc(Cl)cc1Cn1ccc2ccc(OC)cc2c1=O` [Compound F-3, 2-[(5-Chloro-2-ethylsulfonylphenyl)methyl]-7-methoxyisoquinolin-1-one], for which the IC50 worked out at 490 nM.

With `CCS(=O)(=O)c1ccc([N+](=O)[O-])cc1Cn1ccc2ccc(C(F)(F)F)cc2c1=O` [Compound F-6, 2-[(2-Ethylsulfonyl-5-nitrophenyl)methyl]-7-(trifluoromethyl)isoquinolin-1-one], the IC50 came to 490 nM.

With `CCS(=O)(=O)c1ccc(N)cc1Cn1ccc2ccc(C(F)(F)F)cc2c1=O` [Compound F-7, 2-[(5-Amino-2-ethylsulfonylphenyl)methyl]-7-(trifluoromethyl)isoquinolin-1-one], the IC50 worked out at 2080 nM.

As for `CCS(=O)(=O)c1ccc([N+](=O)[O-])cc1Cn1ccc2ccc(OC(F)(F)F)cc2c1=O` [Compound F-9, 2-[(2-Ethylsulfonyl-5-nitrophenyl)methyl]-7-(trifluoromethoxy)isoquinolin-1-one], the IC50 was determined as 810 nM.

Turning to `CCS(=O)(=O)c1ccc(N)cc1Cn1ccc2ccc(OC(F)(F)F)cc2c1=O` [Compound F-10, 2-[(5-Amino-2-ethylsulfonylphenyl)methyl]-7-(trifluoromethoxy)isoquinolin-1-one], the IC50 was determined as 1340 nM.

On to `CCS(=O)(=O)c1ccc(C#N)cc1Nn1cnc2cc(CN3CCOCC3)c(OC(F)(F)F)cc2c1=O` [Compound G-8, 4-Ethylsulfonyl-3-[[7-(morpholin-4-ylmethyl)-4-oxo-6-(trifluoromethoxy)quinazolin-3-yl]amino]benzonitrile], for which the IC50 stood at 680 nM.

Turning to `CCS(=O)(=O)c1ccc(C#N)cc1Nn1cnc2cc(CN3CCNCC3)c(Br)cc2c1=O` [Compound H-41, 3-[[6-Bromo-4-oxo-7-(piperazin-1-ylmethyl)quinazolin-3-yl]amino]-4-ethylsulfonylbenzonitrile], the IC50 came out at 250 nM.

The test is the same for the next values; noted with them: read-out: DDR1 enzyme inhibition assay IC50.
Consider `CCS(=O)(=O)c1ccc(Cl)cc1Cn1cnc2cc(CN3CC[C@@H](N)C3)c(Br)cc2c1=O` [Compound J-7, 7-[[(3R)-3-aminopyrrolidin-1-yl]methyl]-6-bromo-3-[(5-chloro-2-ethylsulfonylphenyl)methyl]quinazolin-4-one], for which the IC50 turned out to be 170 nM.

For the compound `CCS(=O)(=O)c1ccc(Cl)cc1Cn1cnc2cc(CN3CC[C@H](N)C3)c(Br)cc2c1=O` [Compound J-8, 7-[[(3S)-3-Aminopyrrolidin-1-yl]methyl]-6-bromo-3-[(5-chloro-2-ethylsulfonylphenyl)methyl]quinazolin-4-one], the IC50 was determined as 140 nM.

For the compound `CCS(=O)(=O)c1ccc(Cl)cc1Cn1cnc2cc(CN3CCC(N4CCCCC4)C3)c(Br)cc2c1=O` (centres unmarked) [Compound J-9, 6-Bromo-3-[(5-chloro-2-ethylsulfonylphenyl)methyl]-7-[(3-piperidin-1-ylpyrrolidin-1-yl)methyl]quinazolin-4-one], the IC50 was 120 nM.

With `CCS(=O)(=O)c1ccc(Cl)cc1Cn1cnc2c(Br)c(CN3CCNCC3)c(Br)cc2c1=O` [Compound L-11, 6,8-Dibromo-3-[(5-chloro-2-ethylsulfonylphenyl)methyl]-7-(piperazin-1-ylmethyl)quinazolin-4-one], the IC50 stood at 90 nM.

For `CCS(=O)(=O)c1ccc(Cl)cc1Cn1cnc2c(Br)c(CN3CCN(C(C)C)CC3)c(Br)cc2c1=O` [Compound L-12, 6,8-Dibromo-3-[(5-chloro-2-ethylsulfonylphenyl)methyl]-7-[(4-propan-2-ylpiperazin-1-yl)methyl]quinazolin-4-one], the IC50 turned out to be 200 nM.

The target in another test is T1, DDR1. The test can be described thus: Measurement of DDR1 binding activity (LanthaScreen Eu Kinase Binding Assay).
Conditions: not given
On the procedure:
2. Measurement of DDR1 Binding Activity
DDR1 binding activity was measured using the LanthaScreen (Registered trademark) Eu Kinase Binding Assay (manufactured by Life Technologies Corporation). […] After one-hour reaction at room temperature, the fluorescence resonance energy transfer was measured.
Turning to `CCS(=O)(=O)c1ccc(Cl)cc1Cn1cnc2c(Cl)c(CO)c(C(F)(F)F)cc2c1=O` [Compound K-26, 8-Chloro-3-[(5-chloro-2-ethylsulfonylphenyl)methyl]-7-(hydroxymethyl)-6-(trifluoromethyl)quinazolin-4-one], the IC50 is 240 nM.

A further test relates to human endometrial cancer cell line MFE-280. The test is described as follows: Measurement of antitumor effect in MFE-280 cancer-bearing nude mice. Type of test: in vivo. The conditions noted are these: MFE-280 xenograft in BALB/c nude mice, 200 mg/kg orally once daily, 11th day.
For the compound `CCS(=O)(=O)c1ccc(Cl)cc1Nn1cnc2ccc(OC(F)(F)F)cc2c1=O` [Compound A-45, 3-(5-Chloro-2-ethylsulfonylanilino)-6-(trifluoromethoxy)quinazolin-4-one], the “TGI after 11 days” value is 72%.

The values above are taken from patent publication US10005739B2, “Quinazolinone and isoquinolinone derivative” (CHUGAI SEIYAKU KABUSHIKI KAISHA, priority 2013, dated 2018).
